According to paper PMC11903733 (Frontiers in Pharmacology, 2025):

Legend:
LSD1 = biological target: T1, LSD1 (Homo sapiens, UniProt O60341); assay: Lance Ultra LSD1 demethylase TR-FRET enzyme inhibition assay; format: biochemical; conditions: recombinant human LSD1 (172–852 aa) 2 nM, Bio-H3K4me2 substrate, 1 h, TR-FRET; mean ± SD, n = 3
T1 construct: Recombinant human LSD1 (172–852 aa); by word order LSD1 from Sino Biological
Text: These were utilized in both in vitro and in vivo assays. Iscove’s Modified Dulbecco’s Medium (IMDM), Roswell Park Memorial Institute (RPMI)-1640 medium, fetal bovine serum (FBS) and penicillin/streptomycin were purchased from Gibco (Grand Island, New Nork, United States). Recombinant human LSD1 (172–852 aa) and full-length LSD2 were obtained from Sino Biological Inc. and ActiveMotif.
The inhibitory effects of the tested compounds on LSD1 and LSD2 enzymes were methodically assessed using the Lance Ultra LSD1 Histone H3-Lysine 4 Demethylase Assay Kit from PerkinElmer, adhering to previously published methodologies ([Li et al., 2022]). In brief, the reaction was initiated by adding 4 μL of enzyme solution, with concentrations specified at 2 nM for LSD1 or 172 nM for LSD2, 4 μL of substrate solution [2.5 μM Bio-H3K4me2 ([…])], and 2 μL of tested compound to a Tris buffer (50 mM Tris-HCl, 50 mM NaCl, 0.01% Tween 20, 1 mM DTT, 10 μM FAD, 10% glycerol, pH 9.0) at room temperature and incubated for 1 h. Following the incubation, 5 μL of a detection mixture, comprising an Eu-labeled H3K4me0 antibody and ULight Streptavidin, was added to the reaction. The fluorescence intensity was then measured employing TR-FRET mode with excitation and emission wavelengths set at 320 nm and 665 nm, respectively, utilizing the Envision (PerkinElmer) system. Each experiment was performed in triplicate.

HAL-01 = assay: MTS cell proliferation assay; format: cell-based; conditions: Homo sapiens, growth inhibition after 72 h
Method: (§1) The myeloid leukemia cell lines MV-4-11, MOLT-4, MOLM-16, HL-60, and the human B lymphocyte cell line […] were purchased from the American Type Culture Collection (ATCC, Manassas, VA, United States). The myeloid leukemia cell line HAL-01 was obtained from the Deutsche Sammlung von Mikroorganismen und Zellkulturen GmbH (DSMZ, Braunschweig, Germany). All cells were cultured in IMDM or RPMI -1640 medium supplemented with 10% FBS, 100 U/mL penicillin, and 100 μg/mL streptomycin. The cells were maintained in a humidified incubator with an atmosphere of 5% CO2 at 37°C.
(§2) The in vitro anti-proliferative activity of the compounds was determined using the CellTiter 96® AQueous NonRadioactive Cell Proliferation Assay Kit (Promega, Madison, United States) as previously described ([Ji et al., 2017]). In brief, 5–10 × 10^3 cells and 180 μL of medium were first seeded into each well of a 96-well plate. Subsequently, the cells were exposed to either 0.2% Dimethyl sulfoxide (DMSO, Aladdin Reagent, Shanghai, China) or a serial dilution of the compounds, prepared from a 10 mM stock solution in DMSO, with the final concentration of DMSO being 0.2% for 72 h. 20 μL of MTS reagent was added to each well, and the culture was incubated in the dark at 37°C for 4 h. Finally, the optical density (OD) was then recorded at 490 nm and 690 nm using a microplate reader from Molecular Devices. The proliferation inhibition rate was calculated according to the following formula: inhibition ratio = (OD of DMSO treated wells - OD of compound treated wells)/(OD of DMSO treated wells - OD of blank wells) × 100%. The IC50 values of the compounds inhibiting cell proliferation were calculated using GraphPad Prism 10 (GraphPad Software Inc., San Diego, CA).
(§3) ^aIC50 (μM) is the concentration of compound needed to reduce cell growth by 50% after 72 h treatment with LTM-1.

HL-60 = assay: MTS cell proliferation assay; format: cell-based; conditions: Homo sapiens, growth inhibition after 72 h
Method: as §1, §2, §3

MOLM-16 = assay: MTS cell proliferation assay; format: cell-based; conditions: MOLM16; growth inhibition after 72 h
Method: as §1, §2, §3

MOLT-4 = assay: MTS cell proliferation assay; format: cell-based; conditions: Homo sapiens, growth inhibition after 72 h
Method: as §1, §2, §3

CSF1R = CSF1R (Homo sapiens, UniProt P07333); assay: SelectScreen kinase profiling; format: biochemical
Method: (§4) The kinase selectivity analysis of LTM-1 was performed utilizing the SelectScreen Kinase Profiling Service offered by Thermo Fisher Scientific. In a dose-response assay featuring a ten-point dilution series from 0.25 μM to 128 μM, the inhibitory effects of LTM-1 on substrate phosphorylation reactions catalyzed by a panel of kinases were assessed. Consequently, the half-maximal inhibitory concentrations (IC50 values) for each kinase were determined.

EPHB1 = EPHB1 (Homo sapiens, UniProt P54762); assay: SelectScreen kinase profiling; format: biochemical
Method: as §4

ERBB2 = ERBB2 (Homo sapiens, UniProt P04626); assay: SelectScreen kinase profiling; format: biochemical
Method: as §4

FGFR2 = FGFR2 (Homo sapiens, UniProt P21802); assay: SelectScreen kinase profiling; format: biochemical
Method: as §4

MET = MET (Homo sapiens, UniProt P08581); assay: SelectScreen kinase profiling; format: biochemical
Method: as §4

PDGFRA = PDGFRA (Homo sapiens, UniProt P16234); assay: SelectScreen kinase profiling; format: biochemical
Method: as §4

Chain of CSF1R (P07333 20-972): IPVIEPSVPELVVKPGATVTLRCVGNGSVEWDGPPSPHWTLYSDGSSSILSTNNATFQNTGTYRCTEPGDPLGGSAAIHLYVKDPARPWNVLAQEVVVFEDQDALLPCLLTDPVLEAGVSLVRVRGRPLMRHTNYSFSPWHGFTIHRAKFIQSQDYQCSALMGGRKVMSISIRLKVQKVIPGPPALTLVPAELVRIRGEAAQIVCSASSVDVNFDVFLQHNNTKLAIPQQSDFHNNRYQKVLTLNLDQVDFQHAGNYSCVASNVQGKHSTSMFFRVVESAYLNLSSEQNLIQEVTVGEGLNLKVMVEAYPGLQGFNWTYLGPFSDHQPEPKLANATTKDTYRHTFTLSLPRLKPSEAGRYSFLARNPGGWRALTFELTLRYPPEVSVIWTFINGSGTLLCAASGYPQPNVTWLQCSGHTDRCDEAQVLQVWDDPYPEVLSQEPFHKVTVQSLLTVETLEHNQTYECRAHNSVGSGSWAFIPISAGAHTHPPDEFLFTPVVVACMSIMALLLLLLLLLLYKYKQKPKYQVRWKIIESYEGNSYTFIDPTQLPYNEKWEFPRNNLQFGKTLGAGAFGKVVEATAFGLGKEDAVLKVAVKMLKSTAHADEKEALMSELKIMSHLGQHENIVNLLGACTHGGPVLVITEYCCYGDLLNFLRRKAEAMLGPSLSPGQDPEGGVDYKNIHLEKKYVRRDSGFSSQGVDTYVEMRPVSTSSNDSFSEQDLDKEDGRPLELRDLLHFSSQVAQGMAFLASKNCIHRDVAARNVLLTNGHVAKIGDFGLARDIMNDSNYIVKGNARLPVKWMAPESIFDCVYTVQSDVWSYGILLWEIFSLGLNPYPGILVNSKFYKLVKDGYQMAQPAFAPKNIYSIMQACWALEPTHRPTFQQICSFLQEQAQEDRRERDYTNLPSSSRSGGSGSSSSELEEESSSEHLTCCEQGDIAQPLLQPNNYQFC
Chain of EPHB1 (P54762 18-984): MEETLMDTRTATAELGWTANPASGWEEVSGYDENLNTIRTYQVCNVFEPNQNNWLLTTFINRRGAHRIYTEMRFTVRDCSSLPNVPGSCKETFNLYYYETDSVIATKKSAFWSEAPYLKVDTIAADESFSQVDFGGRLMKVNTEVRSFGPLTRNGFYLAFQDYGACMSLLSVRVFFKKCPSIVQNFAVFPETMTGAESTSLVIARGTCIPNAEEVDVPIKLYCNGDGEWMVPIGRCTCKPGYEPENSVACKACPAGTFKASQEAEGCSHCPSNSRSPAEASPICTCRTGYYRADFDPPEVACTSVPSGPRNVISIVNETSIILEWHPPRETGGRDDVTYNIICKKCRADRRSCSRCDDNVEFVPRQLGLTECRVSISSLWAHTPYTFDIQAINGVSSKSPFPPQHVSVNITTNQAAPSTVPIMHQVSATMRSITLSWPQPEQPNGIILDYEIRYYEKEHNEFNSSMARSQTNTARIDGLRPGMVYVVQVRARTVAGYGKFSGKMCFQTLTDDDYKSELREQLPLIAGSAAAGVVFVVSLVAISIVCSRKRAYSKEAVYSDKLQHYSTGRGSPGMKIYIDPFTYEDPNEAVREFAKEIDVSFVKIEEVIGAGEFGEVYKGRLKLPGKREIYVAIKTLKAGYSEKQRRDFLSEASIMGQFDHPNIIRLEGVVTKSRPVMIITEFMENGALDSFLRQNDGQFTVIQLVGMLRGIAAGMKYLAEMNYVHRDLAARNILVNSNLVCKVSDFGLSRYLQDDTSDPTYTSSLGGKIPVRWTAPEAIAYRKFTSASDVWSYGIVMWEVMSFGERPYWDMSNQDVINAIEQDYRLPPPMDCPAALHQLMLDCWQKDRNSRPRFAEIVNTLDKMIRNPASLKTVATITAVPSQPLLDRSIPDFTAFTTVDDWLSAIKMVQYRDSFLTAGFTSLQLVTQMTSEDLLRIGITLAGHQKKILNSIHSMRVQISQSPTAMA
Chain of PDGFRA (P16234 24-1089): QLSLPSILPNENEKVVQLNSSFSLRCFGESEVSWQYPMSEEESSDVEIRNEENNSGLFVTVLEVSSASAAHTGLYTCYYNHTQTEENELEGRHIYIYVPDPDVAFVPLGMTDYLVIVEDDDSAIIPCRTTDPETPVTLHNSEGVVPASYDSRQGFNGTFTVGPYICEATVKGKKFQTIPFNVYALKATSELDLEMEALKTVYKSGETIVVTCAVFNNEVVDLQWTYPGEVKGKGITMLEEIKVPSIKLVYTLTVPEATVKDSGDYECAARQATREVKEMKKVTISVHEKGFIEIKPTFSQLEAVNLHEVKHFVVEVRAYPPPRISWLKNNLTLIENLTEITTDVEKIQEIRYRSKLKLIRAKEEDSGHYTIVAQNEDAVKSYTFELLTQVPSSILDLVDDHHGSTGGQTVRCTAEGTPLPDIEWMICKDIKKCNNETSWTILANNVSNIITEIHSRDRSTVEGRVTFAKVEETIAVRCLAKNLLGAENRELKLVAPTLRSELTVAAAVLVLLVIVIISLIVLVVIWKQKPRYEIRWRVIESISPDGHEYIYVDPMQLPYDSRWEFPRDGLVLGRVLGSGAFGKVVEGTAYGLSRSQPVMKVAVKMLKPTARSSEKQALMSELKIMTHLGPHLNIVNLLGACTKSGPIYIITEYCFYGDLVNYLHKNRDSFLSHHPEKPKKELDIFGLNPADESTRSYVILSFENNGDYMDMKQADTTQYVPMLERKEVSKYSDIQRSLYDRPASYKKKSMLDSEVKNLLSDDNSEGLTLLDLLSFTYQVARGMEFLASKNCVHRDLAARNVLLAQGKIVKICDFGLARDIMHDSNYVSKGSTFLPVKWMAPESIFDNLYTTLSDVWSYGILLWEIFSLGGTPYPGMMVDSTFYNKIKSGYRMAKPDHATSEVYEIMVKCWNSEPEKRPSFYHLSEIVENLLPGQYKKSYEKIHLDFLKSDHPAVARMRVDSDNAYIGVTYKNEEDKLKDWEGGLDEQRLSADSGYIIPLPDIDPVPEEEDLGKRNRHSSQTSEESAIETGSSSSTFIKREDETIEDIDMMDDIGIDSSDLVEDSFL
Chain of FGFR2 (P21802 22-821): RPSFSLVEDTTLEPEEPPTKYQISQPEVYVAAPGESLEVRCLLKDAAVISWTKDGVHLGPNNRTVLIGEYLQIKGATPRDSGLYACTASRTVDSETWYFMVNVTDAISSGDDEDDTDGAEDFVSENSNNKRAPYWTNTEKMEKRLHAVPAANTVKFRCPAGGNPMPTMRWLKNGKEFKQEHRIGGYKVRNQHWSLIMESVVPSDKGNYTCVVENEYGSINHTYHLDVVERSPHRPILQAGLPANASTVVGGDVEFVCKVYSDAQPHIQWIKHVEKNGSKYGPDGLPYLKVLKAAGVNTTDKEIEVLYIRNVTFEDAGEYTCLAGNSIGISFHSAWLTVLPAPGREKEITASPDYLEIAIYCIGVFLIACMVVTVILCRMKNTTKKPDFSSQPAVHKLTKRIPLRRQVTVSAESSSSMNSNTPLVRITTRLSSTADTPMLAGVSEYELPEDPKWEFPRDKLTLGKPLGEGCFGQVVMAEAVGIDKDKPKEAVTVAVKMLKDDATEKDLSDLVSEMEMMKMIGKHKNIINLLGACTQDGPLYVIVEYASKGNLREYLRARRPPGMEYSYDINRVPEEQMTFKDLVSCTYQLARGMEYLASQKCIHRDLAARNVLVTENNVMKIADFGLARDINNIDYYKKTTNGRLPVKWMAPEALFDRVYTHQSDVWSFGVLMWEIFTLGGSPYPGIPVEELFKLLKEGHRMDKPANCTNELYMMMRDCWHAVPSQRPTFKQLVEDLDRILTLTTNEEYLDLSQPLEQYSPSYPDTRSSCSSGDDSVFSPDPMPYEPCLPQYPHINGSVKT
Chain of ERBB2 (P04626 23-1255): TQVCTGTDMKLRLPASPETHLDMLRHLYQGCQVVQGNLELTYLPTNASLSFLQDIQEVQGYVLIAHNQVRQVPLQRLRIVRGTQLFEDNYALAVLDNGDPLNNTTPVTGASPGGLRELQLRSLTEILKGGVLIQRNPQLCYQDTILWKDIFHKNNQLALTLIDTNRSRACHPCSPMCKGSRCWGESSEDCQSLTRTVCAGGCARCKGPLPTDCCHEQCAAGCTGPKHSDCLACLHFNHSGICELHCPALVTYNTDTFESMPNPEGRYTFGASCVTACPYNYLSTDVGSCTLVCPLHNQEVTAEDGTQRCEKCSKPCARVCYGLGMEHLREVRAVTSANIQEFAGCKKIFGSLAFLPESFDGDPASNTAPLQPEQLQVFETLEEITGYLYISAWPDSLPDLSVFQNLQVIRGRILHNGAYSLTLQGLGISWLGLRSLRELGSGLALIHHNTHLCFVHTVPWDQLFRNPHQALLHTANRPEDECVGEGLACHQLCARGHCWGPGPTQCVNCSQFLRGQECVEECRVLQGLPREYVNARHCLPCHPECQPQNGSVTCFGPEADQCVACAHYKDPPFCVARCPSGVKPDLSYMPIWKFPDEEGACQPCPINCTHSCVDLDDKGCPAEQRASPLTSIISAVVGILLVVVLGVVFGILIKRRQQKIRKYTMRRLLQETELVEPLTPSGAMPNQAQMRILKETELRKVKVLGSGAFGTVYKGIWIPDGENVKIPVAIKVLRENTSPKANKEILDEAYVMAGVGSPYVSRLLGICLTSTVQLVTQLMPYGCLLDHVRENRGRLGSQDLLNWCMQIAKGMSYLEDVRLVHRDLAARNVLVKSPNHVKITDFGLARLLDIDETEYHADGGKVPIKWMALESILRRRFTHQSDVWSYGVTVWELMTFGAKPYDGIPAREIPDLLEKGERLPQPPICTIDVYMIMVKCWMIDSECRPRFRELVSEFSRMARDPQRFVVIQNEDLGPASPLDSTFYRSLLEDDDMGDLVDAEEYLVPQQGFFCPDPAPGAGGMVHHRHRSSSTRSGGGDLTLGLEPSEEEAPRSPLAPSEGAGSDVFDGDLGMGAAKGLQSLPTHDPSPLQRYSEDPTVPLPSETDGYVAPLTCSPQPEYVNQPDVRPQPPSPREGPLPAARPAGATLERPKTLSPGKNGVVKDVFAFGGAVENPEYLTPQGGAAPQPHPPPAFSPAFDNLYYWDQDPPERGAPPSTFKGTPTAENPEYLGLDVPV

IC50 (LSD1): 2.11 ± 0.14 nM
IC50 (HL-60): 0.39 ± 0.03 µM
IC50 (MOLM-16): 0.27 ± 0.02 µM
IC50 (MOLT-4): 0.19 ± 0.01 µM
IC50 (CSF1R): > 10000 nM
IC50 (EPHB1): > 10000 nM
IC50 (ERBB2): > 10000 nM
IC50 (FGFR2): > 10000 nM
IC50 (MET): > 10000 nM
IC50 (PDGFRA): > 10000 nM
Structure (SMILES): O=S(=O)(c1ccc(C(O)CO)c(C(F)(F)F)c1)N1CCc2cc(C3CC3NCC3CCNCC3)ccc21 (centres unmarked) [LTM-1]
IC50 (HAL-01): 0.25 ± 0.01 µM
